Test results as given in ChEMBL document CHEMBL2095176, “GSK Tuberculosis Screening Data”.
≈ marks a conversion by molar mass, not a printed value.

tested on: Mycobacterium tuberculosis variant bovis BCG; test: microbe, parasite or virus in culture; assay type: functional

SMILES	MIC90 [µM]
COc1ccc(Nc2nc(CN3CCN(Cc4cc(=O)n5ccsc5n4)CC3)cs2)cc1	6 (≈ 2.81 µg/mL)
CN(C)CCCSc1nc(N2CCCC2)c2c(c1C#N)CCCC2	8.5 (≈ 2.93 µg/mL)
CC1CNC(c2ccc(NC(=O)c3ccc(C(=O)Nc4ccc(C5=NC(C)CN5)cc4)cc3)cc2)=N1 (centres undefined)	0.8 (≈ 0.384 µg/mL)
CN(C)c1ccc(NC(=O)Nc2cnsn2)cc1	3.2 (≈ 0.843 µg/mL)
COc1ccc2nc(C)cc(OCC(=O)Nc3ccccc3OC)c2c1	1.4 (≈ 0.493 µg/mL)
O=c1cc(N2CCCNCC2)c(Cl)nn1CCCNS(=O)(=O)c1ccc(-c2ccccc2)cc1	4.6 (≈ 2.31 µg/mL)
Cc1ccc(CCNC(=O)c2c(-c3ccc(F)cc3F)noc2C)cc1	9.8 (≈ 3.49 µg/mL)
Br.Cc1cc(C)cc(OCCCON2C(=N)N=C(N)NC2(C)C)c1	7
O=C(C=Cc1cccs1)N1CCN(Cc2ccc3c(c2)OCO3)CC1	1.7 (≈ 0.606 µg/mL)
O=C(NCc1cc(Cl)cc(Cl)c1)c1c(C(F)(F)F)nc2ccccn12	1.3 (≈ 0.505 µg/mL)
Cc1cc(C)n(Cc2ccc(C(=O)NC3CCC(C(C)(C)C)CC3)cc2)n1 (centres undefined)	6.5 (≈ 2.39 µg/mL)
c1ccc2c(Cc3nnc(Sc4ccnc(N5CCN(c6ccncc6)CC5)n4)n3CCN3CCOCC3)c[nH]c2c1	2.8 (≈ 1.63 µg/mL)
CC(C)c1ccc(OCC(=O)NNC(=O)c2ccncc2)cc1	6.5 (≈ 2.04 µg/mL)
Cc1cc(C(=O)Nc2nc(-c3ccccn3)cs2)no1	4.6 (≈ 1.32 µg/mL)
Cc1ccc(-c2ccnc(-c3cccc(-c4ccccn4)n3)c2)cc1	6.1 (≈ 1.97 µg/mL)
CC(c1nc2ccccc2s1)N(C)C(=O)c1cccc(-n2cnnn2)c1 (centres undefined)	5.6 (≈ 2.04 µg/mL)
Cc1ccccc1CN1CCc2nc(N3CCN(c4ncccn4)CC3)ncc2C1	4 (≈ 1.61 µg/mL)
Cc1cc(NC(=O)c2cccs2)n(-c2nc(C)c(C)c(=O)[nH]2)n1	1.8 (≈ 0.593 µg/mL)
COc1cccc(Nc2cc(C(C)(C)C)nc(-c3ccccn3)n2)c1	3.6 (≈ 1.2 µg/mL)
CC1(C)NC(N)=NC(=N)N1OCCCOc1ccc2ccccc2c1	9.5 (≈ 3.24 µg/mL)
O=C(NNC(=O)c1cc2cc([N+](=O)[O-])ccc2s1)c1cccs1	9.2 (≈ 3.2 µg/mL)
Cc1ccc(-c2nnc(NC(=O)c3ccc(Cl)s3)o2)c(C)c1	4 (≈ 1.34 µg/mL)

SMILES	MIC90 [µM]
N#Cc1nc(-c2cccs2)oc1S(=O)(=O)c1ccc(Br)cc1	2.9 (≈ 1.15 µg/mL)
COc1ccc(CCNC(=O)c2c(C)nc3ccccn23)cc1	6.9 (≈ 2.13 µg/mL)
Cc1cc(C)c2cc(C(=O)NC3CCCCC3)[nH]c2c1	2.8 (≈ 0.757 µg/mL)
Nc1cc(OCc2ccccc2)ccc1Nc1ccccc1	2.1 (≈ 0.61 µg/mL)
Oc1cc(CSc2ccc(Cl)cc2)nc(-c2ccccn2)n1	5.3 (≈ 1.75 µg/mL)
Cc1nc2ccccn2c1C(=O)Nc1ccc(C(C)(C)C)cc1	4.9 (≈ 1.51 µg/mL)
O=C(c1cccc(-n2cnnn2)c1)N1CCCCC1c1nc2ccccc2s1 (centres undefined)	8 (≈ 3.12 µg/mL)
COc1cccc(-c2nc3c(N4CCCC4)cccc3n2CC2CCCN2)n1.O=C(O)C(F)(F)F (centres undefined)	5.8
Cc1ccc(O)cc1Nc1ccnc2ccc(-c3cccc(CNCCN(C)C)c3)cc12	9.1 (≈ 3.88 µg/mL)
COc1cc2c(cc1OC)C(c1ccccc1)N(C(=O)c1nn(C)c(=O)c3ccccc13)CC2 (centres undefined)	6.3 (≈ 2.87 µg/mL)
Cc1cc(C)cc(Oc2ncnc(N3CCCC3CN)c2C)c1 (centres undefined)	7.5 (≈ 2.34 µg/mL)
Cc1cccc(C)c1CNc1c(C(N)=O)cnc2c(C)cccc12	5.9 (≈ 1.88 µg/mL)
O=C(Nc1nnc(-c2ccc(Cl)s2)o1)c1ccc(S(=O)(=O)N2CCCCC2)cc1	7.3 (≈ 3.31 µg/mL)
CCn1c(=O)c(=O)[nH]c2cc(C(=O)Nc3ccccc3Nc3ccc(OC)cc3)ccc21	0.9 (≈ 0.387 µg/mL)
Cn1cc(-c2noc(/C=C3/CCN4CCCC[C@@H]4C3)n2)c2ccccc21	7.3 (≈ 2.54 µg/mL)
COc1ccc(Cc2nn3c(-c4ccc(C)cc4)nnc3s2)cc1	7.5 (≈ 2.52 µg/mL)
Cc1cc2cc(C)c(NCCN)nc2cc1C	5.7 (≈ 1.31 µg/mL)
CC[C@H]1CN2CC[C@@H]1C[C@H]2[C@H](O)c1cc(-c2cccnc2)nc2ccc(OC)cc12	8.3 (≈ 3.35 µg/mL)
Nc1cc(-c2ccc(Cl)cc2)nn1-c1cccc(C(=O)NCC2CC(=O)N(c3ccccc3)C2)c1 (centres undefined)	5.9 (≈ 2.87 µg/mL)
Cc1occc1C(=O)Nc1nc(-c2ccccn2)nc2ccsc12	1.1 (≈ 0.37 µg/mL)
COc1ccc(S(=O)(=O)N(C)C)cc1C(=O)N[C@H]1CCN2CC(c3ccccc3)C[C@H]2C1 (some centres undefined)	0.4 (≈ 0.183 µg/mL)
c1ccc(Nc2nc(-c3ccccn3)cs2)nc1	0.9 (≈ 0.229 µg/mL)

SMILES	MIC90 [µM]
Cc1ccc(C(=O)Nc2nc(-c3ccccn3)cs2)s1	3.7 (≈ 1.12 µg/mL)
Clc1ccc(-c2ccc3c(c2)CC(NCc2ccc(-n4cncn4)cc2)C3)cc1 (centres undefined)	6.7 (≈ 2.69 µg/mL)
Oc1ccc(Nc2ccccc2Nc2ccccc2)cc1Cl	7.7 (≈ 2.39 µg/mL)
O=C(NCCNCc1cc(-c2cncc3ccccc23)cs1)c1ccc(Cl)cc1	8.4 (≈ 3.54 µg/mL)
Cc1c(Cl)ccc2sc(N(CCN(C)C)C(=O)c3ccc(S(C)(=O)=O)cc3)nc12	7 (≈ 3.16 µg/mL)
C[C@H]1CN(Cc2cccc(-c3cc(CNC(=O)c4ccc(CC5CCNCC5)cc4)ccc3F)c2)CCN1	4.7 (≈ 2.42 µg/mL)
O=C(Nc1nnc(-c2ccc(Br)cc2)o1)c1cccc(C(F)(F)F)c1	1.5 (≈ 0.618 µg/mL)
c1ccc(Cc2nnc(Sc3ccnc(N4CCN(c5ccncc5)CC4)n3)n2CCCN2CCOCC2)cc1	2.7 (≈ 1.51 µg/mL)
O=C(NC(=Cc1ccc(-c2cccc(C(F)(F)F)c2)o1)C(=O)N1CCOCC1)c1ccccc1	6.8 (≈ 3.2 µg/mL)
O=C1N(C2CCCCC2)CCS1(=O)=O	3.1 (≈ 0.674 µg/mL)
c1cc2c(s1)CCOC21CCN(Cc2ccc3c(c2)OCCO3)CC1	1.6 (≈ 0.572 µg/mL)
CN(C)S(=O)(=O)c1ccc(C(=O)Nc2nnc(-c3ccc(Br)cc3)o2)cc1	8 (≈ 3.61 µg/mL)
c1ccc(-c2nc(N3CCCCCC3)nc(-n3ccnc3)n2)cc1	9.6 (≈ 3.08 µg/mL)
c1ccc(CCNc2cc(-c3ccccc3)nc3nncn23)cc1	8.1 (≈ 2.55 µg/mL)
CCCc1cc(=O)[nH]c(-n2nc(C)cc2NC(=O)C(CC)c2ccccc2)n1 (centres undefined)	2.7 (≈ 1.02 µg/mL)
Cc1ccc(C)c(-c2nnc(NC(=O)c3ccc(Cl)s3)o2)c1	2.8 (≈ 0.935 µg/mL)
Cc1nn(CC(C)C)c2sc(C(=O)Nc3nc(-c4ccccn4)cs3)cc12	3.7 (≈ 1.47 µg/mL)
CSc1cccc(-c2nnc(NC(=O)c3ccc(Cl)s3)o2)c1	9.6 (≈ 3.38 µg/mL)
Cc1cc(C)c2cc(CN(Cc3cccnc3)C(=O)c3ccccc3F)c(Cl)nc2c1	1.7 (≈ 0.738 µg/mL)
COc1cc(Nc2ccccc2)ccc1NS(=O)(=O)c1c(C)noc1C	2.9 (≈ 1.08 µg/mL)
COc1ccc2nc(C)cc(OCC(=O)Nc3cc(C)cc(C)c3)c2c1	0.5 (≈ 0.175 µg/mL)
Cc1onc(-c2ccccc2)c1C(=O)Nc1nc(-c2ccccn2)cs1	4.3 (≈ 1.56 µg/mL)

SMILES	MIC90 [µM]
O=C(COc1ccc(Br)cc1Cl)Nc1nc(-c2ccccn2)cs1	4.6 (≈ 1.95 µg/mL)
Cn1cc(-c2noc(CCNCCC(C)(C)C)n2)c2ccccc21	9.3 (≈ 3.04 µg/mL)
CCC1=NN(C(=O)c2ccncc2)C(O)(c2ccncc2)C1 (centres undefined)	6.9 (≈ 2.04 µg/mL)
CCc1ccc(S(=O)(=O)Nc2cc(CN3CCN(CCC(C)C)CC3)ccc2C)cc1.O=C(O)C(F)(F)F.O=C(O)C(F)(F)F	6.3
Cc1cc(C)c2cc(CN(Cc3cccnc3)C(=O)c3ccccc3)c(Cl)nc2c1	8.8 (≈ 3.66 µg/mL)
CC(C)Cc1cn(-c2nc(CN3CCCC3)cs2)c2cc(Cl)ccc12	1.9 (≈ 0.711 µg/mL)
c1ccc(-c2csc(CN3CCC4(CC3)OCCc3sccc34)c2)cc1	2.7 (≈ 1.03 µg/mL)
Cc1ccc(NC(=O)c2nc(N3CCCN(C)CC3)ccc2Cl)cc1F	8.8 (≈ 3.32 µg/mL)
COCc1nc(N2CCNCC2)c2c(C)nn(-c3ccc(C)cc3)c2n1	3 (≈ 1.06 µg/mL)
Cc1nc2ccccc2n1CC(O)COc1ccc(NC(=O)c2ccccc2)cc1 (centres undefined)	3.9 (≈ 1.57 µg/mL)
Cc1cc(C)n(-c2nc(C)c(Br)c(N(C)CCO)n2)n1	4.7 (≈ 1.6 µg/mL)
O=c1c2sc(-c3ccc(Cl)cc3)cc2ncn1-c1ccc2c(c1)OC[C@H](CN1CCCC1)O2	2.5 (≈ 1.2 µg/mL)
CCOc1ccc(-c2nc(-c3ccc(C(F)(F)F)c(O[C@@H]4CCN(C)C4)c3)no2)cc1	3.2 (≈ 1.39 µg/mL)
Cc1ccc2c(CC(=O)Nc3nc(-c4ccccn4)cs3)coc2c1	10 (≈ 3.49 µg/mL)
c1csc(Cc2nn3c(-c4n[nH]c5c4CCC5)nnc3s2)c1	3.2 (≈ 1.05 µg/mL)
COc1ccc(CN2CCC3(CCc4ccccc43)CC2)cc1OCc1ccccc1	2.4 (≈ 0.993 µg/mL)
Cc1ccc(-c2nnc(NC(=O)c3ccc(F)cc3)o2)cc1C	2.3 (≈ 0.716 µg/mL)
COc1cc(C2c3c(-c4ccccc4)n[nH]c3C(=O)N2c2ccc(Cl)cc2)ccc1O (centres undefined)	5.4 (≈ 2.33 µg/mL)
O=C(NCCCn1nc(Cl)c(N2CCCNCC2)cc1=O)Nc1ccc(-c2ccccc2)cc1	3.7 (≈ 1.78 µg/mL)
O=C(Nc1nnc(-c2ccc(Br)cc2)o1)c1cccc(F)c1	2.2 (≈ 0.797 µg/mL)
CCc1c(C)nc(-n2nc(C)cc2NC(=O)CCc2ccccc2)[nH]c1=O	3.8 (≈ 1.39 µg/mL)
Cn1cc(-c2noc(CCN[C@H]3CC[C@H](C)CC3)n2)c2ccccc21	9.4 (≈ 3.18 µg/mL)

SMILES	MIC90 [µM]
Cc1ccc(S(=O)(=O)N2CCC(n3nnc4cc(C(F)(F)F)ccc43)CC2)cc1Cl	9.3 (≈ 4.27 µg/mL)
COc1ccc(-c2nc(CCNC(=O)c3ccc(OC)cc3OC)cs2)cc1	6.4 (≈ 2.55 µg/mL)
CCc1ccc(CN2CCC3(CC2)OCCc2sccc23)s1	0.5 (≈ 0.167 µg/mL)
COc1ccc(CCNc2nccc(-c3cccc(OC4CCNCC4)c3)n2)cc1	4.4 (≈ 1.78 µg/mL)
C=CCNCCS(=O)(=O)c1cccc(Nc2ccc(-c3cccc(F)c3)cn2)c1	3.1 (≈ 1.28 µg/mL)
Cc1cc(Oc2ccc(-n3ccnc3)cc2)nc(N2CCN[C@@H](Cc3ccccc3)C2)n1	6.1 (≈ 2.6 µg/mL)
NC(=O)c1ccc(-c2cccc(OCCNCCc3cccc(F)c3)c2)cc1	3.1 (≈ 1.17 µg/mL)
Cc1cc2nc(C)n(CCCOc3ccccc3)c2cc1C	6.1 (≈ 1.8 µg/mL)
CC(=O)N1CCN(Cc2ccc(-c3ccc(NS(=O)(=O)c4ccc(C)cc4)cc3)cc2)CC1	9.7 (≈ 4.5 µg/mL)
O=c1oc2ccccc2nc1CS(=O)(=O)c1ccc(Br)cc1	4.7 (≈ 1.79 µg/mL)
N#Cc1nc(-c2ccc(F)cc2)oc1S(=O)(=O)c1ccc(Br)cc1	1.8 (≈ 0.733 µg/mL)
COc1cccc(-c2cc(OC[C@@H]3CCCN3)cnc2-c2cccc(C(F)(F)F)c2)c1	5.9 (≈ 2.53 µg/mL)
FC(F)(F)c1ccccc1C1CCN(Cc2[nH]nc3ccccc23)CC1	6.3 (≈ 2.26 µg/mL)
CCc1c(C)nc(-n2nc(C)cc2NC(=O)C(CC)c2ccccc2)[nH]c1=O (centres undefined)	1.2 (≈ 0.455 µg/mL)
Cc1ccccc1CN1CCC(O)(c2ccc(Cl)c(C(F)(F)F)c2)CC1	4.3 (≈ 1.65 µg/mL)
O=C(Nc1nnc(-c2ccc(Cl)cc2)o1)c1cc(F)cc(F)c1	4.1 (≈ 1.38 µg/mL)
CNc1nc(SC)nc2ccsc12	10 (≈ 2.11 µg/mL)
O=C(c1[nH]nc2c1CCCC2)N1CCN(Cc2ccc3c(c2)OCO3)CC1	3.9 (≈ 1.44 µg/mL)
O=C(NC1CCNCC1)c1nn(-c2ccc(Cl)cc2)c(=O)cc1N1CCC(Cc2ccccc2)CC1	7.6 (≈ 3.85 µg/mL)
O=C(Nc1ccccc1C(F)(F)F)N1CCN(c2ccc3nnc(-c4ccc(F)cc4)n3n2)CC1	4 (≈ 1.94 µg/mL)
CCc1ccc(C2CC(C(F)(F)F)n3ncc(C(=O)NCc4ccc5c(c4)OCO5)c3N2)cc1 (centres undefined)	4.8 (≈ 2.27 µg/mL)
